Where a name gives a salt, the structure may show the parent alone.
Experiments:
HCK = HCK (Homo sapiens, UniProt P08631); experiment: HCK kinase inhibition; assay type: biochemical
FLT3-ITD = target: T1, FLT3-ITD (Homo sapiens, UniProt P36888, ITD); experiment: FLT3-ITD kinase inhibition; assay type: biochemical
T1 sequence (P36888 27-993): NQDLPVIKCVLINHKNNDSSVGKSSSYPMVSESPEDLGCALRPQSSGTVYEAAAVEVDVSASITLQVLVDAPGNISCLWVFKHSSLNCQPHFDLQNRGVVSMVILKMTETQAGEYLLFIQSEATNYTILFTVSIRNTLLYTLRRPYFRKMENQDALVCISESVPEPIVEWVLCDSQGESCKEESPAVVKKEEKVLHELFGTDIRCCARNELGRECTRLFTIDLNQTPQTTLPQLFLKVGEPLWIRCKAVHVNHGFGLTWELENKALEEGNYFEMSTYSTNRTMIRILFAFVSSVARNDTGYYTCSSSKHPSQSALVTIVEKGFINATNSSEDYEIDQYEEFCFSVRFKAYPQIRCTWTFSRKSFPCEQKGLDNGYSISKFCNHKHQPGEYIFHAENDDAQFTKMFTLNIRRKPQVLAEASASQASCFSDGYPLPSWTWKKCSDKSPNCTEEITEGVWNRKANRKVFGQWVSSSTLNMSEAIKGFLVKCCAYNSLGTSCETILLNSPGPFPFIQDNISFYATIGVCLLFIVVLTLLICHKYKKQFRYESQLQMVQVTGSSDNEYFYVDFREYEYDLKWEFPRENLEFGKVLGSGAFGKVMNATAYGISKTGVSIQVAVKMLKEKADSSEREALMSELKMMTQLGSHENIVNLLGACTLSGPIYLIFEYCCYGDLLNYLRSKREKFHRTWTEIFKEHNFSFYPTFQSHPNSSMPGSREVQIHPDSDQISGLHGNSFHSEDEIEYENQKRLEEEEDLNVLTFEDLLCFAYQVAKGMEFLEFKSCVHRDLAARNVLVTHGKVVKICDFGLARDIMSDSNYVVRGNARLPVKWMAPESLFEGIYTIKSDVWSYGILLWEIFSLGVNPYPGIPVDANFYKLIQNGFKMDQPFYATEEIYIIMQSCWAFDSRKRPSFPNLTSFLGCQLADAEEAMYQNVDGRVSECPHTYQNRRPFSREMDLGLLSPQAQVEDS

Sequence of HCK (P08631 whole entry): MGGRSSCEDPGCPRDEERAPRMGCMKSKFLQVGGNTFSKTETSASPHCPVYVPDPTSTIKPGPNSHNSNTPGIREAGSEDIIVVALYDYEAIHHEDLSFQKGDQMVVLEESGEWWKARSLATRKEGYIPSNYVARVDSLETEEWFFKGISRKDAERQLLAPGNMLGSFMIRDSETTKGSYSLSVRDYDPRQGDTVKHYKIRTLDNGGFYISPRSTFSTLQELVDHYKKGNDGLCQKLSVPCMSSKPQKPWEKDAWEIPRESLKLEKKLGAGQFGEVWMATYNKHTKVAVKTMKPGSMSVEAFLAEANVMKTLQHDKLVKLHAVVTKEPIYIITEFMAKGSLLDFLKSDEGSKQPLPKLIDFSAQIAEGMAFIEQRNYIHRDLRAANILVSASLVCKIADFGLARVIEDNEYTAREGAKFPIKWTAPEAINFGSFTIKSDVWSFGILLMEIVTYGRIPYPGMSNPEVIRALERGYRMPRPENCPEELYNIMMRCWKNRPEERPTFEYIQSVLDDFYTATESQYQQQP

IC50 (HCK) | IC50 (FLT3-ITD) | SMILES
8 nM | 17 nM | CC(C)(C)N1CCN([C@H]2CC[C@H](n3cc(-c4ccc(Oc5ccccc5)cc4)c4c(N)ncnc43)CC2)CC1 [Example 13, 7-((trans)-4-(4-(tert-Butyl)piperazin-1-yl)cyclohexyl)-5-(4-phenoxyphenyl)-7H-pyrrolo[2,3-d]pyrimidin-4-amine]
0.77 nM | 2750 nM | COc1cc(-c2nn([C@H]3CC[C@H](N4CCN(C)CC4)CC3)c3ncnc(N)c23)ccc1NC(=O)c1cc2ccccc2n1C [Example 14, N-(4-(4-amino-1-((trans)-4-(4-methylpiperazin-1-yl)cyclohexyl)-1H-pyrazolo[3,4-d]pyrimidin-3-yl)-2-methoxyphenyl)-1-methyl-1H-indole-2-carboxamide]
4.9 nM |  | COc1cc(-c2cn([C@H]3CC[C@@H](N4CCn5c(C)nnc5C4)CC3)c3ncnc(N)c23)ccc1NC(=O)c1cc2ccccc2n1C [Example 16, N-(4-(4-amino-7-((cis)-4-(3-methyl-5,6-dihydro[1,2,4]triazolo[4,3-a]pyrazin-7(8H)-yl)cyclohexyl)-7H-pyrrolo[2,3-d]pyrimidin-5-yl)-2-methoxyphenyl)-1-methyl-1H-indole-2-carboxamidamide]
2.55 nM | 255 nM | CN1CCN([C@H]2CC[C@H](n3cc(-c4ccc(NC(=O)c5cc6ccccc6n5C)cc4)c4c(N)ncnc43)CC2)CC1 [Example 17, N-(4-(4-amino-7-((trans)-4-(4-methylpiperazin-1-yl)cyclohexyl)-7H-pyrrolo[2,3-d]pyrimidin-5-yl)phenyl)-1-methyl-1H-indole-2-carboxamide]
4.55 nM | 428 nM | Nc1ncnc2c1c(-c1ccc(Oc3ccccc3)cc1)cn2[C@H]1CC[C@H](NC(=O)c2ccccn2)CC1 [Example 18, N-((trans)-4-(4-amino-5-(4-phenoxyphenyl)-7H-pyrrolo[2,3-d]pyrimidin-7-yl)cyclohexyl)picolinamide]
11.9 nM | 108 nM | Nc1ncnc2c1c(-c1ccc(Oc3ccccc3)cc1)cn2[C@H]1CC[C@H](NC(=O)c2cccnc2)CC1 [Example 19, N-((trans)-4-(4-amino-5-(4-phenoxyphenyl)-7H-pyrrolo[2,3-d]pyrimidin-7-yl)cyclohexyl)nicotinamide]
7.9 nM | 414 nM | Nc1ncnc2c1c(-c1ccc(Oc3ccccc3)cc1)nn2[C@H]1CC[C@H](NC(=O)c2ccncc2)CC1 [Example 20, N-((trans)-4-(4-amino-3-(4-phenoxyphenyl)-1H-pyrazolo[3,4-d]pyrimidin-1-yl)cyclohexyl)isonicotinamide]
12 nM | 548 nM | Nc1ncnc2c1c(-c1ccc(Oc3ccccc3)cc1)nn2[C@H]1CC[C@H](NC(=O)c2ccccn2)CC1 [Example 23, N-((trans)-4-(4-amino-3-(4-phenoxyphenyl)-1H-pyrazolo[3,4-d]pyrimidin-1-yl)cyclohexyl)picolinamide]
11 nM |  | CCc1nnc2n1CCN([C@H]1CC[C@@H](n3cc(-c4ccc(NC(=O)c5cc6ccccc6n5C)c(OC)c4)c4c(N)ncnc43)CC1)C2 [Example 31, N-(4-(4-amino-7-((cis)-4-(3-ethyl-5,6-dihydro[1,2,4]triazolo[4,3-a]pyrazin-7(8H)-yl)cyclohexyl)-7H-pyrrolo[2,3-d]pyrimidin-5-yl)-2-methoxyphenyl)-1-methyl-1H-indole-2-carboxamide]
14 nM |  | CCc1nnc2n1CCN([C@H]1CC[C@H](n3cc(-c4ccc(NC(=O)c5cc6ccccc6n5C)c(OC)c4)c4c(N)ncnc43)CC1)C2 [Example 32, N-(4-(4-amino-7-((trans)-4-(3-ethyl-5,6-dihydro[1,2,4]triazolo[4,3-a]pyrazin-7(8H)-yl)cyclohexyl)-7H-pyrrolo[2,3-d]pyrimidin-5-yl)-2-methoxyphenyl)-1-methyl-1H-indole-2-carboxamide]
7.7 nM |  | COc1cc(-c2cn([C@H]3CC[C@H](N4CCn5c(nnc5C(C)C)C4)CC3)c3ncnc(N)c23)ccc1NC(=O)c1cc2ccccc2n1C [Example 34, N-(4-(4-amino-7-((trans)-4-(3-isopropyl-5,6-dihydro[1,2,4]triazolo[4,3-a]pyrazin-7(8H)-yl)cyclohexyl)-7H-pyrrolo[2,3-d]pyrimidin-5-yl)-2-methoxyphenyl)-1-methyl-1H-indole-2-carboxamide]
4 nM | 409 nM | COc1cc(-c2cn([C@H]3CC[C@H](N4CCn5c(cnc5C)C4)CC3)c3ncnc(N)c23)ccc1NC(=O)c1cc2ccccc2n1C [Example 36, N-(4-(4-amino-7-((trans)-4-(3-methyl-5,6-dihydroimidazolo[1,5-a]pyrazin-7(8H)-yl)cyclohexyl)-7H-pyrrolo[2,3-d]pyrimidin-5-yl)-2-methoxyphenyl)-1-methyl-1H-indole-2-carboxamide]

Continued, compound first:

SMILES | IC50 (HCK) | IC50 (FLT3-ITD)
Nc1ncnc2c1c(-c1ccc(Oc3ccccc3)cc1)cn2[C@H]1CC[C@H](NCC(=O)O)CC1 [Example 3, 2-(((trans)-4-(4-Amino-5-(4-phenoxyphenyl)-7H-pyrrolo[2,3-d]pyrimidin-7-yl)cyclohexyl)amino)acetic acid.trihydrochloride] | 4.2 nM | 24 nM
Nc1ncnc2c1c(-c1ccc(Oc3ccccc3)cc1)cn2[C@H]1CC[C@@H](NCc2ccncc2)CC1 [Example 5, 5-(4-phenoxyphenyl)-7-((cis)-4-((pyridin-4-ylmethyl)amino)cyclohexyl)-7H-pyrrolo[2,3-d]pyrimidin-4-amine] |  | 6.6 nM
Nc1ncnc2c1c(-c1ccc(Oc3ccccc3)cc1)cn2[C@H]1CC[C@@H](NCC(=O)O)CC1 [Example 9, 2-(((cis)-4-(4-Amino-5-(4-phenoxyphenyl)-7H-pyrrolo[2,3-d]pyrimidin-7-yl)cyclohexyl)amino)acetic acid.trihydrochloride] | 16 nM | 23 nM
NC(=O)CN[C@H]1CC[C@@H](n2cc(-c3ccc(Oc4ccccc4)cc3)c3c(N)ncnc32)CC1 [Example 10, 2-(((cis)-4-(4-Amino-5-(4-phenoxyphenyl)-7H-pyrrolo[2,3-d]pyrimidin-7-yl)cyclohexyl)amino)acetamide] |  | 23 nM
NC(=O)CN[C@H]1CC[C@H](n2cc(-c3ccc(Oc4ccccc4)cc3)c3c(N)ncnc32)CC1 [Example 11, 2-(((trans)-4-(4-Amino-5-(4-phenoxyphenyl)-7H-pyrrolo[2,3-d]pyrimidin-7-yl)cyclohexyl)amino)acetamide] |  | 23 nM
Nc1ncnc2c1c(-c1ccc(Oc3ccccc3)cc1)cn2[C@H]1CC[C@@H](NC(=O)c2ccncc2)CC1 [Example 12, N-((cis)-4-(4-5-(4-Phenoxyphenyl)-7H-pyrrolo[2,3-d]pyrimidin-7-yl)cyclohexyl)isonicotinamide] | 4 nM | 44 nM
COc1cc(-c2cn([C@H]3CC[C@@H](N4CCN(C)CC4)CC3)c3ncnc(N)c23)ccc1NC(=O)c1cc2ccccc2n1C [Example 26, N-(4-(4-amino-7-((cis)-4-(4-methylpiperazin-1-yl)cyclohexyl)-7H-pyrrolo[2,3-d]pyrimidin-5-yl)-2-methoxyphenyl)-1-methyl-1H-indole-2-carboxamide] | 7.2 nM | 1330 nM
CN1CCN([C@H]2CC[C@H](n3nc(-c4ccc(NC(=O)c5cc6ccccc6n5C)cc4)c4c(N)ncnc43)CC2)CC1 [Example 28, N-(4-(4-amino-1-((trans)-4-(4-methylpiperazin-1-yl)cyclohexyl)-1H-pyrazolo[3,4-d]pyrimidin-3-yl)phenyl)-1-methyl-1H-indole-2-carboxamide] | 1.6 nM | 1080 nM
COc1cc(-c2cn([C@H]3CC[C@H](N4CCn5c(nnc5C(F)(F)F)C4)CC3)c3ncnc(N)c23)ccc1NC(=O)c1cc2ccccc2n1C [Example 30, N-(4-(4-amino-7-((trans)-4-(3-(trifluoromethyl)-5,6-dihydro[1,2,4]triazolo[4,3-a]pyrazin-7(8H)-yl)cyclohexyl)-7H-pyrrolo[2,3-d]pyrimidin-5-yl)-2-methoxyphenyl)-1-methyl-1H-indole-2-carboxamide] | 7.7 nM | 
COc1cc(-c2cn([C@H]3CC[C@@H](N4CCn5c(nnc5C(C)C)C4)CC3)c3ncnc(N)c23)ccc1NC(=O)c1cc2ccccc2n1C [Example 33, N-(4-(4-amino-7-((cis)-4-(3-isopropyl-5,6-dihydro[1,2,4]triazolo[4,3-a]pyrazin-7(8H)-yl)cyclohexyl)-7H-pyrrolo[2,3-d]pyrimidin-5-yl)-2-methoxyphenyl)-1-methyl-1H-indole-2-carboxamide] | 7.7 nM | 
Nc1ncnc2c1c(-c1ccc(Oc3ccccc3)cc1)cn2[C@H]1CC[C@H](N[C@H]2CCNC2=O)CC1 [Example 54, (S)-3-(((trans)-4-(4-amino-5-(4-phenoxyphenyl)-7H-pyrrolo[2,3-d]pyrimidin-7-yl)cyclohexyl)amino)pyrrolidin-2-one] |  | 25 nM

— patent US9604988B2, “Agent for treating or inhibiting recurrence of acute myeloid leukemia” (RIKEN, priority 2012, dated 2017)
